Drawing on US11467168B2, “Methods of identifying a moldulator of otopetrin-mediated proton translocation activity” (UNIVERSITY OF SOUTHERN CALIFORNIA, priority 2017, dated 2022), this text covers Hill coefficient and IC50 for one molecule.

Values joined by “and” are separate entries in the source; they are usually repeats but may differ in a detail not shown here. Equal entries are not always repeated.

In the assay the target is T1, Otop1 (Mus musculus, UniProt Q80VM9, G396A).
T1 construct: expressed in transfected cells; host or cells: HEK-293 cells (CRL-1573, ATCC), transient co-transfection with GFP, cDNA in pcDNA3
T1 sequence (Q80VM9 1-600 G396A): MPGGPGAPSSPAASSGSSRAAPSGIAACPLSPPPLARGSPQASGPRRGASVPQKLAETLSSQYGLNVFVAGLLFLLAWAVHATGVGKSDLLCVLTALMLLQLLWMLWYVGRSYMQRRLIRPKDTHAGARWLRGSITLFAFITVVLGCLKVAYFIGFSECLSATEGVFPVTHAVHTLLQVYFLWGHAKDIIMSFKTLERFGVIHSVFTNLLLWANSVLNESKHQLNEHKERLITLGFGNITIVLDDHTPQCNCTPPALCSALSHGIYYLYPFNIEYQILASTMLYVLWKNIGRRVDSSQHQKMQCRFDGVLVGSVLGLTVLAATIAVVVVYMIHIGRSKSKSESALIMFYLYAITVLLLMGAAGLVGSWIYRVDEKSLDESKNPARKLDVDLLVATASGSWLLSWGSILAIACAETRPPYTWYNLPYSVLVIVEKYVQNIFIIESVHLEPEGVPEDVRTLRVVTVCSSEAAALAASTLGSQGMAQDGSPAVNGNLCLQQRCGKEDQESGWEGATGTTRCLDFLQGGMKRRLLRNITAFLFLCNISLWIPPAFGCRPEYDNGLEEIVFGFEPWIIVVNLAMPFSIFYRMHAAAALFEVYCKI
Put plainly: Zn2+ inhibition of Otop1 currents, whole-cell patch clamp in transfected HEK-293 cells. The format is cell-based. The conditions noted are these: Otop1-transfected HEK-293 cells, currents evoked by pH 5.5, Hill equation fit. The source says: The transition metal Zn^2+ is a potent inhibitor of Hv1, binding to two external histidine residues that regulate gating^7,31,32. […] To gain insights into structural elements involved in ion permeation by Otop1, we measured its sensitivity to inhibition by Zn^2+.
Otop and GFP (5:1) were co-transfected into HEK-293 cells (CRL-1573, ATCC) using TransIT-LT1 Transfection Reagent (Mirus Bio Corporation, Madison, Wis.). Patch clamp recording and imaging experiments on GFP-positive cells were performed at room temperature ˜24-48 h after transfection.
Whole-cell patch clamp recording was performed as previously described^49. In brief, recordings were made with an Axopatch 200A or Axopatch 200B amplifier, digitized with a Digidata 1322a 16-bit data acquisition system, acquired with pClamp 8.2, and analyzed with Clampfit 8.2 (Molecular Devices, Palo Alto, Calif.). Records were sampled at 5 kHz and filtered at 1 kHz. Patch pipettes with resistance of 2-4 MΩ were fabricated from borosilicate glass, and only recordings in which a gigaohm seal was achieved were used in the analysis. For most experiments, after the whole cell configuration was achieved, the membrane potential was held at −80 mV, or ramped from −80 mV to +80 mV (1V/s) once per second. […]
For orientation: In patch-clamp work, channel activity is measured electrically.

By Hill coefficient is commonly meant a measure of the steepness of the concentration-response curve. As a reminder, the IC50 is the concentration that gives 50% inhibition. A higher IC50 goes with lower potency. Turning to `[Cl-].[Cl-].[Zn+2]` [Zn^2+, ZnCl2], the Hill coefficient is 0.89 and 0.89±0.06; the IC50 was determined as 190 µM.
